Source: patent publication US20140227303A1, “METHODS FOR DIAGNOSING AND MONITORING DISEASES OR CONDITIONS USING DISEASE MODIFIED BIOMOLECULES AND MEASUREMENT OF A FUNCTIONAL IMMUNE RESPONSE” (VIRACOR-IBT LABORATORIES, priority 2011, published 2014)
Entries after “also recorded” stand apart in the source; their conditions may differ. Where two headings read alike, the source gives them in different places. Square brackets hold non-standard residues; d marks the D form. Ends that are not written are not given here. Peptide text beside a SMILES is read from it. Cit = NC(=O)NCCC[C@H](N)C(=O)O

How the values were obtained:
[1] = Peptide solubility in water; format: physicochemical
PBMCs = assay: Cellular stimulation assay: PBMCs incubated with individual peptides DMB 1011 to DMB 1016, TNFα and IL6 by AlphaLisa; format: cell-based, human; conditions: for Stimulation response of peptides with same sequence but only one or two citrullines (in words): compared with fully citrullinated peptide; for Stimulation of cells to produce TNF and IL-6 (in words): fibrinogen based peptides with 3 citrulline residues
Protocol: Experiment 2. Cytokine Production after PBMC Stimulation Using Individual Peptides from DMB 1011 to DMB 1016
Experimental setting: Peripheral blood mononuclear cells (PBMCs) were prepared from freshly collected blood using a Ficoll gradient method. The cellular stimulation assay was performed by incubating PBMCs with individual peptides DMB 1011 to DMB 1016. Approximately 300,000 to 500,000 PBMC cells were used for each stimulation assay in a cell culture AIM V serum free medium (Life Technologies) within a 96 well round bottom plate. Concentrations of TNFα and IL6 in culture supernatants were determined after 20 hrs incubation using the AlphaLisa® method.

PBMCs from RA patients = assay: Cellular stimulation assay: PBMCs incubated with individual peptides DMB 1001-DMB 1010, cytokines in supernatant by AlphaLisa; format: cell-based, human; conditions: peptide 10 μg/ml, 20 hrs incubation
Protocol: Experiment 1: Cytokine Production after Stimulation of PBMCs from RA Patients with Individual Peptides DMB 1001-DMB 1010
Experimental setting: Peripheral blood mononuclear cells (PBMCs) were prepared from freshly collected blood using a Ficoll gradient method. The cellular stimulation assay was performed by incubation of PBMCs with the individual peptides DMB 1001-DMB 1010 at a concentration of 10 μg/ml. Approximately 300,000 to 500,000 PBMC cells were used for each stimulation assay in a cell culture AIM V serum free medium (Life Technologies) within a 96 well round bottom plate. TNFα, IL6 and IL1b concentrations in culture supernatants were determined using the AlphaLisa® method after 20 hrs of incubation.

| Compound | TNFα concentration in culture supernatant (PBMCs from RA patients; PBMC Sample 1) [pg/mL] | TNFα concentration in culture supernatant (PBMCs from RA patients; PBMC Sample 2) [pg/mL] | also measured |
| --- | --- | --- | --- |
| CC(C)C[C@H](NC(=O)[C@H](CCCNC(N)=O)NC(=O)[C@@H](NC(=O)[C@H](C)NC(=O)[C@H](CO)NC(=O)[C@H](CO)NC(=O)[C@H](CCCNC(N)=O)NC(=O)[C@@H](NC(=O)[C@H](C)NC(=O)[C@H](Cc1ccc(O)cc1)NC(=O)[C@@H](N)C(C)C)[C@@H](C)O)C(C)C)C(=O)N[C@@H](CCCNC(N)=O)C(=O)N[C@@H](CO)C(=O)N[C@@H](CO)C(=O)N[C@H](C(=O)N1CCC[C@H]1C(=O)O)C(C)C [DMB 1001, VYAT[Cit]SSAV[Cit]L[Cit]SSVP] (H-VYAT[Cit]SSAV[Cit]L[Cit]SSVP-OH; N-terminus and C-terminus assumed) | – | – | Water solubility (in words) [1]: not water soluble |
| CC(C)C[C@H](NC(=O)[C@H](CCCNC(N)=O)NC(=O)[C@@H](NC(=O)[C@H](C)NC(=O)[C@H](CO)NC(=O)[C@H](CO)NC(=O)[C@H](CCCNC(N)=O)NC(=O)[C@@H](NC(=O)[C@H](C)NC(=O)[C@H](Cc1ccc(O)cc1)NC(=O)[C@@H](NC(=O)CNC(=O)CN)C(C)C)[C@@H](C)O)C(C)C)C(=O)N[C@@H](CCCNC(N)=O)C(=O)N[C@@H](CO)C(=O)N[C@@H](CO)C(=O)N[C@H](C(=O)N1CCC[C@H]1C(=O)O)C(C)C [DMB 1011, GGVYAT[Cit]SSAV[Cit]L[Cit]SSVP] | – | – | Water solubility (in words) [1]: improved the peptide solubility in water; also recorded: water soluble; Water solubility (in words) ([1]; listed as SEQ ID NO: 11): increases the water solubility |
| GGVYATRSSAV[Cit]LRSSVP [DMB 1014] | – | – | Stimulation response of peptides with same sequence but only one or two citrullines (in words) (PBMCs): greatly diminished; Stimulation of cells to produce TNF and IL-6 (in words) (PBMCs): failed to stimulate cells |
| GGVYATRSSAV[Cit]L[Cit]SSVP [DMB 1013] | – | – | Stimulation response of peptides with same sequence but only one or two citrullines (in words) (PBMCs): greatly diminished |
| GGVYAT[Cit]SSAVRL[Cit]SSVP [DMB 1012] | – | – | Stimulation response of peptides with same sequence but only one or two citrullines (in words) (PBMCs): greatly diminished |
| GGV[Cit]GP[Cit]VVE[CIT]HQSACKD (GGV[Cit]GP[Cit]VVE[Cit]HQSACKD) [DMB 1015] | – | – | Stimulation of cells to produce TNF and IL-6 (in words) (PBMCs): failed to stimulate cells |
| GPRVVERHQSACKDS [DMB 1008, Fibrinogen alpha chain peptide, not citrullinated] | 7.1 | 7.5 | – |
| GP[Cit]VVE[Cit]HQSACKDS [DMB 1007] | 4.3 | 4.6 | – |
| HQCHQESTRGRSRGRCGRSGS [DMB 1006, Filaggrin peptide, not citrullinated] | 2.7 | 7.6 | – |
| HQCHQEST[Cit]GRSRGRCGRSGS (cysteine pairing not given here) [DMB 1005] | 2.1 | 3.6 | – |
| KIHAREIFDSRGNPTVE [DMB 1010, Alpha enolase peptide, not citrullinated] | 2.3 | 3.6 | – |
| KIHA[Cit]EIFDS[Cit]GNPTVE [DMB 1009] | 5.0 | 6.4 | – |
| NEEGFFSARGHRPLDKK [DMB 1004, Fibrinogen beta chain peptide, not citrullinated] | 2.5 | 6.7 | – |
| NEEGFFSA[Cit]GHRPLDKK [DMB 1003] | 4.1 | 2.2 | – |
| VYATRSSAVRLRSSVP [DMB 1002, Vimentin-derived peptide, not citrullinated] | 7.7 | 2.7 | IL1b concentration in cell culture (PBMCs from RA patients; PBMC Sample 1): 1; IL6 concentration in cell culture (PBMCs from RA patients; PBMC Sample 1): 0; IL1b concentration in cell culture (PBMCs from RA patients; PBMC Sample 2): 0; IL6 concentration in cell culture (PBMCs from RA patients; PBMC Sample 2): 0 |
| lipopolysaccharide [LPS, reference compound] | 1708.9 | 508.9 | – |
